Values quoted from earlier work, collected in patent US6803060B2, “Composition to boost libido” (priority 2000, dated 2004).

Assays:
[1] = system: male erectile dysfunction; settings: alone or in combination with papaverine
corpus cavernosum = settings: for erection after injection into the corpus cavernosum: injected directly into the corpus cavernosum with a hypodermic needle; for duration of erection after injection: intracavernosal injection, appropriate dose
impotentia erectionis = settings: buccal, 100 I.U. three times a day for 14 days
impotent men = settings: ingestion

Compound | erection after injection into the corpus cavernosum (corpus cavernosum) | other results
CCCCC[C@H](O)/C=C/[C@H]1[C@H](O)CC(=O)[C@@H]1CCCCCCC(=O)O [prostaglandin E1] |  | erectile response [1]: improved erectile response
COc1ccc(CCN(C)CCCC(C#N)(c2ccc(OC)c(OC)c2)C(C)C)cc1OC (stereo not shown) [verapamil] | caused erection | 
CC[C@H](C)[C@@H]1NC(=O)[C@H](Cc2ccc(O)cc2)NC(=O)[C@@H](N)CSSC[C@@H](C(=O)N2CCC[C@H]2C(=O)N[C@@H](CC(C)C)C(=O)NCC(N)=O)NC(=O)[C@H](CC(N)=O)NC(=O)[C@H](CCC(N)=O)NC1=O [oxytocin] |  | patients with improvement of impotentia erectionis (impotentia erectionis): 12 of the 16
CC(COc1ccccc1)N(CCCl)Cc1ccccc1 (stereo not shown) [phenoxybenzamine] | caused erection | duration of erection after injection (corpus cavernosum): unrelenting erection lasting for hours
Cc1ccc(N(CC2=NCCN2)c2cccc(O)c2)cc1 [phentolamine] | caused erection | 
CCN(CC)CCOC(=O)C(Cc1cccc2ccccc12)CC1CCCO1 (mixture of isomers) [naftidrofuryl] | caused erection | 
COc1ccc(Cc2nccc3cc(OC)c(OC)cc23)cc1OC [papaverine] | caused erection | duration of erection after injection (corpus cavernosum): unrelenting erection lasting for hours
CN(C)CCCN1c2ccccc2CCc2ccccc21 [imipramine] | caused erection | 
COC(=O)[C@@H]1[C@H]2C[C@H]3c4[nH]c5ccccc5c4CCN3C[C@@H]2CC[C@@H]1O [yohimbine] |  | treated patients reporting complete satisfaction (impotent men): 5%; subjective improvement in erectile ability (impotent men; impotent men treated): 38%
CC(=O)Oc1cc(C(C)C)c(OCCN(C)C)cc1C [thymoxamine] | caused erection | 
